Assay results: US20120122727A1, “IN VITRO METHOD FOR PREDICTING WHETHER A COMPOUND IS GENOTOXIC IN VIVO” (priority 2009, published 2012)

Test system: primary mouse hepatocytes
Assay: Gene expression (Affymetrix Mouse Genome 430 2.0) in primary mouse hepatocytes, true vs false GTX, 24 h and 48 h
Settings: 48 h; log2, corrected for vehicle control

## c1ccc2c(c1)cc1ccc3cccc4ccc2c1c34 [BaP, Benzo(a)pyrene]
  Gene expression AK005731 average: 3.0498
  Gene expression AK007854 average: 1.6125
  Gene expression AK010447 average: −1.207
  Gene expression AK010738 average: 0.9112
  Gene expression AK014608 average: 1.245
  Gene expression AK017734 average: 0.7529
  Gene expression AK018383 average: 1.273
  Gene expression AK019979 average: −1.0966
  Gene expression AV095209 average: −0.7654
  Gene expression AV141095 average: −1.4056
  Gene expression AV173869 average: −1.924
  Gene expression AV216768 average: −1.447
  Gene expression AV219418 average: 1.558
  Gene expression AV221299 average: −1.169
  Gene expression AV246296 average: 1.1524
  Gene expression AV251625 average: 1.731
  Gene expression AV254764 average: 1.48
  Gene expression AV327248 average: 2.067
  Gene expression BB009155 average: 0.784
  Gene expression BB027848 average: 0.4738
  Gene expression BB043558 average: 1.692
  Gene expression BB046347 average: 0.7766
  Gene expression BB140436 average: −0.4572
  Gene expression BB204486 average: −1.5693
  Gene expression BB223872 average: 1.1634
  Gene expression BB246912 average: −1.54
  Gene expression BB275142 average: 1.0559
  Gene expression BB458460 average: −1.384
  Gene expression BB463610 average: 1.672
  Gene expression BB730977 average: 0.4218
  Gene expression BB743970 average: 1.51
  Gene expression BB770528 average: 0.7877
  Gene expression BB781615 average: 0.9271
  Gene expression BC003284 average: 0.7313
  Gene expression BC004827 average: −1.186
  Gene expression BC005552 average: −0.2121
  Gene expression BC006713 average: 0.4721
  Gene expression BC010318 average: −0.5529
  Gene expression BC012247 average: 1.477
  Gene expression BC012955 average: −0.9445
  Gene expression BC013893 average: 1.04
  Gene expression BC017615 average: −2.234
  Gene expression BC019379 average: −1.9807
  Gene expression BC019882 average: 2.16
  Gene expression BC021352 average: 0.7052
  Gene expression BC022148 average: 1.324
  Gene expression BC025169 average: −0.5114
  Gene expression BC026131 average: −1.045
  Gene expression BC027026 average: 1.379
  Gene expression BC027121 average: 1.345
  Gene expression BC027185 average: 0.7081
  Gene expression BE956581 average: 1.451
  Gene expression BF719766 average: 0.9507
  Gene expression BG065754 average: 0.9746
  Gene expression BG066491 average: −2.098
  Gene expression BG076151 average: 0.7599
  Gene expression BG076333 average: −0.4091
  Gene expression BG797099 average: 1.8809
  Gene expression BG967046 average: 0.5936
  Gene expression BI651416 average: 1.9573
  Gene expression BI966443 average: 1.3186
  Gene expression BM198879 average: 0.8089
  Gene expression BM200015 average: 1.0174
  Gene expression BM230508 average: 1.158
  Gene expression BM936480 average: 3.0213
  Gene expression BQ174991 average: −1.408
  Gene expression L21027 average: −1.779
  Gene expression NM_007556 average: −1.089
  Gene expression NM_007980 average: 1.753
  Gene expression NM_007987 average: 1.353
  Gene expression NM_008522 average: 2.9351
  Gene expression NM_008935 average: −1.4799
  Gene expression NM_009897 average: 1.182
  Gene expression NM_011075 average: 1.198
  Gene expression NM_011176 average: 1.4287
  Gene expression NM_011316 average: 0.8735
  Gene expression NM_012006 average: 2.867
  Gene expression NM_013642 average: −1.442
  Gene expression NM_013738 average: 0.9012
  Gene expression NM_013929 average: 1.062
  Gene expression NM_018881 average: 3.369
  Gene expression NM_019738 average: −2.586
  Gene expression NM_030697 average: 1.3687
  Gene expression NM_053122 average: −1.795
  Gene expression NM_134147 average: −1.2396
  Gene expression NM_134188 average: 0.2884
  Gene expression X62701 average: −1.2338
